Data taken from PMC5887109, “Unravelling the Molecular Determinants of Bee Sensitivity to Neonicotinoid Insecticides” (Current Biology, 2018).

How the values were obtained:
Bombus terrestris [1] = experiment: Acute contact (topical) insecticide bioassay of bumble bees; conditions: no synergist, 48 hours after application
Experimental: (§1) Acute contact insecticide assays were performed on female A. mellifera following standard methods OECD 2013 [30]. Bioassays of B. terrestris were based on the OECD guidelines developed for honeybees but with bees assayed in individual Nicot cages. Bees were starved of sucrose solution for up to 2 hr to encourage feeding during the experiment. […] Controls were fed a solution of sucrose containing a concentration of acetone matching that of the highest treatment concentration. After 4-6 hr the syringes were assessed to see if bees had consumed the insecticide-sucrose solution. Those that had not consumed all of the solution were excluded from the experiment. Mortality was assessed 48 hr after feeding and lethal concentrations (LC50 values) were calculated by probit analysis using Genstat version 16 (VSN International). For synergist bioassays, B. terrestris or A. mellifera workers were first treated with 20 μg of piperonyl butoxide or 1 μg of aminobenzotriazole applied to the dorsal thorax. Synergist bioassays included an additional control group treated only with the synergist. 1 hr after synergist application, bees were then treated with the appropriate insecticide dosage as above.

honeybees = conditions: depends on route of exposure; cited from earlier work
[2] = biological target: nicotinic acetylcholine receptor (nAChR); experiment: [3H]imidacloprid displacement, bumble bee head membrane preparations; type: binding, B. terrestris; conditions: bumble bee head membranes; 95% CI given in text
Experimental: [^3H]imidacloprid (specific activity 1.406 GBq μmol^−1) displacement studies were conducted using membrane preparations isolated from frozen (−80°C) honeybee and bumble bee heads, respectively, following previously published protocols. Briefly, bee heads weighing 10cg were homogenized in 200cml ice-cold 0.1cM potassium phosphate buffer, pH 7.4 containing 95cmM sucrose using a motor-driven Ultra Turrax blender. […] Assays were performed in a 96-well microtiter plate with bonded GF/C filter membrane (Packard UniFilter-96, GF/C) and consisted of 200 μL of homogenate (0.48cmg protein), 25 μL of [^3H]imidacloprid (576cpM) and 25 μL of competing ligand. Ligand concentrations used ranged from 0.001 to 10c000cnM and were tested at least in duplicate per competition assay. The assay was started by the addition of homogenate and incubated for 60cmin at room temperature. Bound [^3H]imidacloprid was quantified by filtration into a second 96-well filter plate (conditioned with ice-cold 100cmM potassium phosphate buffer, pH 7.4 (including BSA 5cg liter−1)) using a commercial cell harvester (Brandel). […] Each well was then loaded with 25 μL of scintillation cocktail (Microszint-O-Filtercount, Packard) and the plate counted in a Topcount scintillation counter (Packard). Non-specific binding was determined using a final concentration of 10cμM unlabelled imidacloprid. […]

Bombus terrestris [3] = experiment: Acute oral insecticide bioassay of bumble bees, with or without PBO; conditions: for increase in the sensitivity of bumble bees after treatment with PBO: oral bioassay, PBO pretreatment; for LD50: 48 hours after application
Experimental: as §1

Row | SMILES | LD50 (Bombus terrestris [1]) | EPA toxicity category (honeybees) | IC50 [2] | increase in the sensitivity of bumble bees after treatment with PBO (Bombus terrestris [3]) | LD50 (Bombus terrestris [3]; oral, no synergist) | LD50 (Bombus terrestris [3]; oral, synergist PBO) | Synergism Ratio (Bombus terrestris [3]; oral, PBO versus no synergist)
1 | N#C/N=C1\SCCN1Cc1ccc(Cl)nc1 [thiacloprid] | > 100 μg/bee | slightly toxic” or “practically non-toxic | 0.62 nM | 4.2 fold | 19.68 μg/bee | 4.73 μg/bee | –
2 | O=[N+]([O-])NC1=NCCN1Cc1ccc(Cl)nc1 [imidacloprid] | 0.38 μg/bee | highly toxic | 0.71 nM | no significant shift | 0.038 μg/bee | 0.032 μg/bee | 1.2
